Data published in ChEMBL document CHEMBL1201862, “PubChem BioAssay data set” (2004).
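1) Cells in 96-well plates. 2) Compound, 48 h, 5 concentrations. 3) Linear interpolation between surrounding doses. 4) Unreached endpoint = highest concentration. GI50 marks 50% less growth.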 Active and inactive are the calls of the source. Cut-off read from the data, not from the text of the source: active = GI50 up to about 1.1 µM and inactive = higher.

Legend:
Experiment in all cases: NCI anticancer screen, dose series, 48 h
SN12C = tested on: SN12C
DMS-114 = tested on: DMS-114
DLD-1 = tested on: DLD-1
KM12 = tested on: KM12
OVCAR-3 = tested on: OVCAR-3
A549 = tested on: A549
SF-539 = tested on: SF-539
SNB-75 = tested on: SNB-75
DMS-273 = tested on: DMS-273
M19-MEL = tested on: M19-MEL
HOP-62 = tested on: HOP-62
TK-10 = tested on: TK-10
SNB-19 = tested on: SNB-19
HCC 2998 = tested on: HCC 2998
NCI-H226 = tested on: NCI-H226
SK-OV-3 = tested on: SK-OV-3
A498 = tested on: A498
SF-295 = tested on: SF-295
MOLT-4 = tested on: MOLT-4
NCI-H460 = tested on: NCI-H460

Measured: GI50

Cc1c2ccccc2c(CO)c2cc(F)c3ccccc3c12
inactive: SN12C 17.3 µM | DMS-114 18.1 µM | DLD-1 14.8 µM | KM12 18.8 µM | OVCAR-3 26.9 µM | A549 26.6 µM | SF-539 30.6 µM | SNB-75 29.9 µM | DMS-273 14.8 µM | M19-MEL 35.8 µM | HOP-62 31.5 µM | TK-10 37.4 µM | SNB-19 30 µM | HCC 2998 50.6 µM | NCI-H226 42 µM | SK-OV-3 29 µM | A498 38.2 µM | SF-295 21.9 µM | MOLT-4 14.8 µM

Cc1ccc(/N=N/C(C2=NC(=O)CS2)c2nc3ccccc3[nH]2)cc1 (stereo not drawn)
inactive: SN12C > 100 µM | DMS-114 > 100 µM | DLD-1 > 100 µM | KM12 > 100 µM | OVCAR-3 > 100 µM | A549 > 100 µM | SF-539 54.6 µM | SNB-75 59.2 µM | DMS-273 > 100 µM | M19-MEL > 100 µM | HOP-62 27.2 µM | NCI-H460 > 100 µM | TK-10 > 100 µM | SNB-19 > 100 µM | NCI-H226 6.1 µM | SK-OV-3 > 100 µM | A498 > 100 µM | SF-295 > 100 µM | MOLT-4 20.7 µM

CCCCCCNC(=O)C(C)C1CCC2(C)C=CC(=O)C(C)=C2C1O (stereo not drawn)
inactive: SN12C > 100 µM | DMS-114 45.3 µM | DLD-1 > 100 µM | KM12 > 88.1 µM | OVCAR-3 > 100 µM | A549 > 100 µM | SF-539 > 100 µM | SNB-75 > 100 µM | DMS-273 > 100 µM | HOP-62 > 100 µM | NCI-H460 > 100 µM | SNB-19 > 100 µM | HCC 2998 > 100 µM | NCI-H226 > 100 µM | SK-OV-3 > 100 µM | A498 > 100 µM | SF-295 > 100 µM | MOLT-4 > 75.2 µM

COc1ccc(/C=C/C(=O)C(C)(C)C)cc1OC
inactive: SN12C 65.8 µM | DMS-114 39.7 µM | DLD-1 65.9 µM | KM12 43.9 µM | OVCAR-3 64.7 µM | A549 > 100 µM | SNB-75 34.4 µM | M19-MEL > 100 µM | HOP-62 > 100 µM | NCI-H460 > 100 µM | TK-10 > 100 µM | SNB-19 > 100 µM | HCC 2998 > 100 µM | SK-OV-3 76.2 µM | A498 > 100 µM | SF-295 > 100 µM | MOLT-4 59.6 µM
